From ChEMBL document CHEMBL3856245, “New labdane diterpenoids from Croton laui and their anti-inflammatory activities” (Bioorg Med Chem Lett, 2016)

Columns and labels:
[1] = Cytotoxicity against mouse RAW264.7 cells assessed as reduction in cell viability after 48 hrs by MTT assay; assay type: toxicity
[2] = Antiinflammatory activity in mouse RAW264.7 cells assessed as inhibition of LPS-induced NO production after 24 hrs in presence of LPS by Griess reagent based assay; assay type: functional, cell-based; details: RAW264.7, 24 h
RAW264.7 = assay: Selectivity index, ratio of CC50 for mouse RAW264.7 cells to antiinflammatory IC50 for mouse RAW264.7 cells; assay type: functional

Row | IC50 [2] | SMILES | CC50 at 48 h [1] | Ratio CC50/IC50 (RAW264.7)
1 | 44.6 µM | CC1=CC(=O)O[C@@]12C[C@@H]1[C@@]3(C)CCCC(C)(C)[C@@H]3C[C@H](O)[C@@]1(C)O2 | > 100 µM | >2.2
2 | 93 µM | C/C(C=O)=C\C[C@H]1[C@](C)(O)[C@@H](O)C[C@H]2C(C)(C)CCC[C@@]21C | > 100 µM | >1.1
3 | 42.7 µM | C/C(=C\CO)[C@H]1C[C@@H]2[C@@]3(C)CCCC(C)(C)[C@@H]3C[C@H](O)[C@@]2(C)O1 | > 100 µM | >2.3
4 | 49.3 µM | C=C/C(C)=C/C[C@H]1[C@](C)(O)[C@@H](O)C[C@H]2C(C)(C)CCC[C@@]21C | 94.5 µM | 1.9
5 | 49.6 µM | CC1=CC(=O)O[C@]12C[C@@H]1[C@@]3(C)CCCC(C)(C)[C@@H]3C[C@H](O)[C@@]1(C)O2 | > 100 µM | >2
6 | 16.5 µM | COc1ccc2c(c1)c(CC(=O)O)c(C)n2C(=O)c1ccc(Cl)cc1 [INDOMETHACIN] | > 200 µM | >12.1
